The source of these data is paper PMC9322122, “Development of (4-Phenylamino)quinazoline Alkylthiourea Derivatives as Novel NF-κB Inhibitors” (Pharmaceuticals, 2022).

The test system of one series is NF-κB. As to the kind of experiment: NF-κB luciferase reporter assay. In kind it is cell-based. As to conditions: Homo sapiens, NF-κB-luciferase-transfected HEK293 cells, TNFα 50 ng/mL. As to the method: NF-κB Luciferase Reporter Vector was purchased from Signosis (Santa Clara, CA, USA) and transfected into HEK-293 cells using FuGENE HD (Promega, Fitchburg, MA, USA) following the manufacturer’s protocol. The transfected cells were incubated in serum-free DMEM for 16 h and then treated with DMSO or indicated compounds. After 3 h, cells were treated with or without 50 ng/mL of Recombinant Human TNFα Protein (R&D systems, Minneapolis, MN, USA) for another 3 h. The protein lysates were analyzed using Steady-Glo® Luciferase Assay System (Promega, Fitchburg, MA, USA) and TECAN Infinite 200 pro (Männedorf, Switzerland).

A short description of series [1]: Cell viability (WST-1), HEK293. The class given is cell-based. As to conditions: human, HEK293 cells, mean ± SEM, n = 3. As to the method: Cells were incubated with the WST-1 reagent (Thermo Fisher Scientific, Waltham, MA, USA) at 37 °C for 2 h. The cell viability was determined by spectrophotometer at 450 nm.
On the technique in general: Tetrazolium dyes change colour on reduction, which living cells bring about.

The subject of another series is phospho-IKKα/β. As to the kind of experiment: Western blot phospho-IKKα/β in dTHP-1 cells. The class given is cell-based, human. The conditions noted are these: 7.5 µM; LPS-stimulated dTHP-1 cells. As to the method:
Cells were lysed in the commercial RIPA Buffer (Thermo Fisher Scientific, Waltham, MA, USA) and then centrifuged at 14,000× g for 20 min. […] Antibodies used in this study were phospho-NF-κB p65 (S468; catalog no. 3039), phospho-NF-κB p65 (S536; catalog no. 3033), phospho-IKKα/β (catalog no. 2697), and IκB (catalog no. 9242) from Cell Signaling Technology (Beverly, MA, USA); GAPDH from ABclonal (catalog no. A10868; Woburn, MA, USA). The labeled signals were determined using an enhanced chemiluminescence system (UVP, Upland, CA, USA). The experiments were performed at least two times in triplicate, providing basically the same results.
The dTHP−1 cells were incubated with DMSO (0.1%), 19 (7.5 µM), or CAPE (10 µM) in medium for 3 h and then stimulated with or without LPS (0.1 µg/mL) for another 30 min. (A) The levels of phospho-NF-κB p65 (S536), phospho-IKKα/β, IκB, and GAPDH were determined by Western blot. The normalized (B) phospho-NF-κB p65 (S536), (C) phospho-IKKα/β, and (D) IκB levels were quantified. All data are expressed as mean ± SEM (n = 3); * p < 0.05 compared with the DMSO + LPS group.
On the technique in general: Immunoblotting shows a protein as a band on a membrane.

The target of a further series is T1, CHUK (IKK alpha) (Homo sapiens, UniProt O15111).
T1 construct: purchased Thermo Fisher Scientific (screening service)
T1 sequence (O15111 whole entry): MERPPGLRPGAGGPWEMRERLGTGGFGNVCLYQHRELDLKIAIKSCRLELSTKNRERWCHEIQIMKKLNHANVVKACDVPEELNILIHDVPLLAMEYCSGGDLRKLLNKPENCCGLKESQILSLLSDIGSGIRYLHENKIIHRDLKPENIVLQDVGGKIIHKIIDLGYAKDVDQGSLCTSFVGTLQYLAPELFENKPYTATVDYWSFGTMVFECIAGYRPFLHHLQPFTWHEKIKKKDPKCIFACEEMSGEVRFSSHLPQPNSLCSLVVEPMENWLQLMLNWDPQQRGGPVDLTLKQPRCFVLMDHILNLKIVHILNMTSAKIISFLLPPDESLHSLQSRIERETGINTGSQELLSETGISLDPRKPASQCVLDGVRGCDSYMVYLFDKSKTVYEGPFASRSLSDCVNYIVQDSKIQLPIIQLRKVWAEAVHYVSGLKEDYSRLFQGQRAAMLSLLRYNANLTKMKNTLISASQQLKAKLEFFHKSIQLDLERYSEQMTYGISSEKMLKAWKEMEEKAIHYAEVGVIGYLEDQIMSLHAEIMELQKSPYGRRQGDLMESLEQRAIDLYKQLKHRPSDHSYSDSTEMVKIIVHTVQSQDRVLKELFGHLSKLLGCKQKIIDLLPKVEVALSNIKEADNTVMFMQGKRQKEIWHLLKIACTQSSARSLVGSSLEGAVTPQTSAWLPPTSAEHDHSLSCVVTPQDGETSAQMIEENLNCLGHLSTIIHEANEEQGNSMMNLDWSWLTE
The series is described as follows: Kinase selectivity profiling (Thermo Fisher). In kind it is biochemical. The conditions noted are these: ATP 100 μM, mean of duplicates. The protocol:
(§1) Tabl e S1. Selectivity profiling of compound 19 ag ainst the protein kinases known to regulate the NF-kB pathway ki nase % Inhibiti on at 2 µMa […]
(§2) aScreenings were perf or med as a servi ce at Thermo Fisher Scientific at an ATP concentrat ion of 100 μM. n.i., no inhi biti on. Data represent mean values of duplicat es that differed by less t han 7%.

The next series has as its target T2, GSK3B (GSK3 beta) (Homo sapiens, UniProt P49841).
T2 construct: purchased Thermo Fisher Scientific (screening service)
As to the kind of experiment: Kinase selectivity profiling (Thermo Fisher). The conditions noted are these: ATP 100 μM, mean of duplicates. In kind it is biochemical. As to the method:
as §1, §2

For the next series, the target named is T3, IKBKB (IKK beta) (Homo sapiens, UniProt O14920).
T3 construct: purchased Thermo Fisher Scientific (screening service)
T3 sequence (O14920 whole entry): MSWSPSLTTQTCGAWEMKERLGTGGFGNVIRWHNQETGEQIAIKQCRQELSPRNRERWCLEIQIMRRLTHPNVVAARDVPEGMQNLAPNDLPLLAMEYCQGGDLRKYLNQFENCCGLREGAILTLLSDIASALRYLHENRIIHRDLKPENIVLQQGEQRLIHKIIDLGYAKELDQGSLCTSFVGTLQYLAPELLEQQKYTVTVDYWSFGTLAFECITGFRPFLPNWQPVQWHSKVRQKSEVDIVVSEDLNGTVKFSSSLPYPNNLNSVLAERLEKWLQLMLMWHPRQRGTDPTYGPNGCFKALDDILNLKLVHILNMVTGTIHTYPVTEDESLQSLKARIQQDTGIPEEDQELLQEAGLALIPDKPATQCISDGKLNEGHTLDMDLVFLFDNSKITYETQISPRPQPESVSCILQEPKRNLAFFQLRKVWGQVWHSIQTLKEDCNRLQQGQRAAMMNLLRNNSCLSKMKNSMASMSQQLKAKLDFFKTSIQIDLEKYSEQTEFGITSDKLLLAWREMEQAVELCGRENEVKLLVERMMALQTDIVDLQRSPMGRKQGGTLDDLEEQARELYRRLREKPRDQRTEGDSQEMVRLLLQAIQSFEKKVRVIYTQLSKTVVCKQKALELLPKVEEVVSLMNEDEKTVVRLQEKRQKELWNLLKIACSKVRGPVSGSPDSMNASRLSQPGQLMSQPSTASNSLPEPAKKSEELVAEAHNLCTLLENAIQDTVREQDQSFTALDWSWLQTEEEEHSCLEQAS
As to the kind of experiment: Kinase selectivity profiling (Thermo Fisher). In kind it is biochemical. The conditions noted are these: ATP 100 μM, mean of duplicates. The protocol: as §1, §2

The target in a further series is T4, IKBKE (IKK epsilon) (Homo sapiens, UniProt Q14164).
T4 construct: purchased Thermo Fisher Scientific (screening service)
As to the kind of experiment: Kinase selectivity profiling (Thermo Fisher). The class given is biochemical. As to conditions: ATP 100 μM, mean of duplicates. The protocol: as §1, §2

The target in a further series is T5, IRAK1 (Homo sapiens, UniProt P51617).
T5 construct: purchased Thermo Fisher Scientific (screening service)
The series is described as follows: Kinase selectivity profiling (Thermo Fisher). In kind it is biochemical. As to conditions: ATP 100 μM, mean of duplicates. The protocol: as §1, §2

The target of the next series is T6, IRAK4 (Homo sapiens, UniProt Q9NWZ3).
T6 construct: purchased Thermo Fisher Scientific (screening service)
As to the kind of experiment: Kinase selectivity profiling (Thermo Fisher). The conditions noted are these: ATP 100 μM, mean of duplicates. In kind it is biochemical. As to the method:
as §1, §2

Another series addresses T7, MAP3K14 (NIK) (Homo sapiens, UniProt Q99558).
T7 construct: purchased Thermo Fisher Scientific (screening service)
The series is described as follows: Kinase selectivity profiling (Thermo Fisher). The conditions noted are these: ATP 100 μM, mean of duplicates. In kind it is biochemical. The protocol:
as §1, §2

The target of another series is T8, MAPK14 (p38 alpha) (Homo sapiens, UniProt Q16539).
T8 construct: purchased Thermo Fisher Scientific (screening service)
T8 sequence (Q16539 whole entry): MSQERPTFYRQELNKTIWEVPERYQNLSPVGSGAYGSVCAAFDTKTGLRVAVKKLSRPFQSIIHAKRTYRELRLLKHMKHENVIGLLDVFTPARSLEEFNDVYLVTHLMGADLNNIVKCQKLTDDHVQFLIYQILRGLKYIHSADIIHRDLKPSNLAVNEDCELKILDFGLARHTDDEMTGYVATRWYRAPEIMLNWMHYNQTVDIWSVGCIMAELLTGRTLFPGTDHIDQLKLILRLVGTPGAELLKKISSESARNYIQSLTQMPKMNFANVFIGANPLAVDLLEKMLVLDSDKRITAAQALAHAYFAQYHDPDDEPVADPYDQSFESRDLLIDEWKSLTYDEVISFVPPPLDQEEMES
As to the kind of experiment: Kinase selectivity profiling (Thermo Fisher). The conditions noted are these: ATP 100 μM, mean of duplicates. The class given is biochemical. The protocol:
as §1, §2

The target of the next series is T9, MAPK3 (ERK1) (Homo sapiens, UniProt P27361).
T9 construct: purchased Thermo Fisher Scientific (screening service)
T9 sequence (P27361 whole entry): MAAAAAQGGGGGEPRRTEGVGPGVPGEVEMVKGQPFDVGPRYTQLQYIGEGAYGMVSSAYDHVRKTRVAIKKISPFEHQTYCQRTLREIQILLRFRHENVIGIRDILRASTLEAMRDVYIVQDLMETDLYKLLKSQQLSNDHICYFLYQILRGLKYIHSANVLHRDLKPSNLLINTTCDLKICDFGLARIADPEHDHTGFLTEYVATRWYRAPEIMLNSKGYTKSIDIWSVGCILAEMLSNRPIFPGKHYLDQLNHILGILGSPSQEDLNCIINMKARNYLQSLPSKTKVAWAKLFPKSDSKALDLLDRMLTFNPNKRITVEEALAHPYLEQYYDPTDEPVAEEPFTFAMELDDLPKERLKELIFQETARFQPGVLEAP
The series is described as follows: Kinase selectivity profiling (Thermo Fisher). The class given is biochemical. The conditions noted are these: ATP 100 μM, mean of duplicates. The protocol:
as §1, §2

Another series addresses T10, PRKCI (PKC iota) (Homo sapiens, UniProt P41743).
T10 construct: purchased Thermo Fisher Scientific (screening service)
The series is described as follows: Kinase selectivity profiling (Thermo Fisher). The class given is biochemical. As to conditions: ATP 100 μM, n.i. = no inhibition. The protocol:
as §1, §2

A further series addresses T11, PRKCQ (PKC theta) (Homo sapiens, UniProt Q04759).
T11 construct: purchased Thermo Fisher Scientific (screening service)
The series is described as follows: Kinase selectivity profiling (Thermo Fisher). The class given is biochemical. As to conditions: ATP 100 μM, n.i. = no inhibition. The protocol:
as §1, §2

In another series the target is T12, RIPK2 (Homo sapiens, UniProt O43353).
T12 construct: purchased Thermo Fisher Scientific (screening service)
The series is described as follows: Kinase selectivity profiling (Thermo Fisher). The class given is biochemical. The conditions noted are these: ATP 100 μM, mean of duplicates. As to the method: as §1, §2

In the next series the target is T13, RPS6KA1 (RSK1) (Homo sapiens, UniProt Q15418).
T13 construct: purchased Thermo Fisher Scientific (screening service)
The series is described as follows: Kinase selectivity profiling (Thermo Fisher). In kind it is biochemical. The conditions noted are these: ATP 100 μM, mean of duplicates. As to the method:
as §1, §2

For another series, the target named is T14, TBK1 (Homo sapiens, UniProt Q9UHD2).
T14 construct: purchased Thermo Fisher Scientific (screening service)
T14 sequence (Q9UHD2 whole entry): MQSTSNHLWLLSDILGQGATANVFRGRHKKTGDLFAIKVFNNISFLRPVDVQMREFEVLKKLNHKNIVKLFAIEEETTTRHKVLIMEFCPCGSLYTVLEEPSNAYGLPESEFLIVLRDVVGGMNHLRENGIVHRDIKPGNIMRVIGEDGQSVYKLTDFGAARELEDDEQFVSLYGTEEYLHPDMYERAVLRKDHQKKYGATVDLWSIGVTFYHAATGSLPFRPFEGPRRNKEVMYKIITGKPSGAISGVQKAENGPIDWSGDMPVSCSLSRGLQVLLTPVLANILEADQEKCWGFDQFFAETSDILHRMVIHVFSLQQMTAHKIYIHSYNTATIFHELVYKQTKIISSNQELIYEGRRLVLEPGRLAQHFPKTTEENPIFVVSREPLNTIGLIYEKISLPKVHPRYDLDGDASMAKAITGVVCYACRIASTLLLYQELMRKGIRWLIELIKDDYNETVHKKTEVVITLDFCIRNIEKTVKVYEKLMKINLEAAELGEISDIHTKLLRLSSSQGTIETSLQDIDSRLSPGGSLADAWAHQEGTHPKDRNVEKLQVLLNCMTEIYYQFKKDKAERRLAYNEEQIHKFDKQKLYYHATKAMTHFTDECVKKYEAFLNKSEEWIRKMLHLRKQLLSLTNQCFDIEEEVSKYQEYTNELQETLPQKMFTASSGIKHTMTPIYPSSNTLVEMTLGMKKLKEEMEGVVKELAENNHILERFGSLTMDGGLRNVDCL
As to the kind of experiment: Kinase selectivity profiling (Thermo Fisher). In kind it is biochemical. The conditions noted are these: ATP 100 μM, mean of duplicates. As to the method:
as §1, §2

Entries after “also recorded” stand apart in the source; their conditions may differ.

T2 sequence (P49841 whole entry): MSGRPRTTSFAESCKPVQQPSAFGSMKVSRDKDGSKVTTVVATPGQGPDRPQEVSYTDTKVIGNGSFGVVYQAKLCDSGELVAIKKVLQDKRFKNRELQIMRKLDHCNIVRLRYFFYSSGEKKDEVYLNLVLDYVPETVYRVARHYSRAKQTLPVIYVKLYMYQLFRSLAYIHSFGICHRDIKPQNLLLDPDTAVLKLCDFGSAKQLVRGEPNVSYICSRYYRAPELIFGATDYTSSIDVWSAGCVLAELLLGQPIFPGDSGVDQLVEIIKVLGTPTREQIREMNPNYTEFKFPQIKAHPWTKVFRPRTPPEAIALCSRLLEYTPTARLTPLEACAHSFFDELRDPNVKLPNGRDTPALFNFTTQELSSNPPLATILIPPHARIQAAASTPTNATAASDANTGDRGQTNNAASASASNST
T7 sequence (Q99558 whole entry): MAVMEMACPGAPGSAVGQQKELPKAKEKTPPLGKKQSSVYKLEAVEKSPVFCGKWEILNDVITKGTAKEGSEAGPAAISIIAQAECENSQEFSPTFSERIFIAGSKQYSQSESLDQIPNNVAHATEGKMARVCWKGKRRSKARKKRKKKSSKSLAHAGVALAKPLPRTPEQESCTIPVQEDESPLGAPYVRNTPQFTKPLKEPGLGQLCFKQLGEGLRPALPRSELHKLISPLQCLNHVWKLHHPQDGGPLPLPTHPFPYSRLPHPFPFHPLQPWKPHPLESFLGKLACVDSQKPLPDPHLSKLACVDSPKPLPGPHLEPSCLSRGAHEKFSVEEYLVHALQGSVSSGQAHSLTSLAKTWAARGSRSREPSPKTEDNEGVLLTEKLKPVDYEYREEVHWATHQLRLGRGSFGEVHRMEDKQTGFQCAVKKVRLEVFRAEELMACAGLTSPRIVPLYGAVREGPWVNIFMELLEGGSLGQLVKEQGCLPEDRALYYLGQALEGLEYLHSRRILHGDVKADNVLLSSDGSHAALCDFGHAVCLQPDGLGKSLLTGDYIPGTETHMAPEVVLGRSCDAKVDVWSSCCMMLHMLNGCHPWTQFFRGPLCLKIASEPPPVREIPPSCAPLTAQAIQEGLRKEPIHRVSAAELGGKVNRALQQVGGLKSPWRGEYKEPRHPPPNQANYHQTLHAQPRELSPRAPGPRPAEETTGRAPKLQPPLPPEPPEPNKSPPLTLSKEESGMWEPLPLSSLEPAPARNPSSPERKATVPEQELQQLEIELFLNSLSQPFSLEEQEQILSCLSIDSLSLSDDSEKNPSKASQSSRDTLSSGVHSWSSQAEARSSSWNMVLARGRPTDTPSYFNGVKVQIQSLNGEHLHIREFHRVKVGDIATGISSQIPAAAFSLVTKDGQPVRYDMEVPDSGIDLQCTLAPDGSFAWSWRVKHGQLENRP
T10 sequence (P41743 whole entry): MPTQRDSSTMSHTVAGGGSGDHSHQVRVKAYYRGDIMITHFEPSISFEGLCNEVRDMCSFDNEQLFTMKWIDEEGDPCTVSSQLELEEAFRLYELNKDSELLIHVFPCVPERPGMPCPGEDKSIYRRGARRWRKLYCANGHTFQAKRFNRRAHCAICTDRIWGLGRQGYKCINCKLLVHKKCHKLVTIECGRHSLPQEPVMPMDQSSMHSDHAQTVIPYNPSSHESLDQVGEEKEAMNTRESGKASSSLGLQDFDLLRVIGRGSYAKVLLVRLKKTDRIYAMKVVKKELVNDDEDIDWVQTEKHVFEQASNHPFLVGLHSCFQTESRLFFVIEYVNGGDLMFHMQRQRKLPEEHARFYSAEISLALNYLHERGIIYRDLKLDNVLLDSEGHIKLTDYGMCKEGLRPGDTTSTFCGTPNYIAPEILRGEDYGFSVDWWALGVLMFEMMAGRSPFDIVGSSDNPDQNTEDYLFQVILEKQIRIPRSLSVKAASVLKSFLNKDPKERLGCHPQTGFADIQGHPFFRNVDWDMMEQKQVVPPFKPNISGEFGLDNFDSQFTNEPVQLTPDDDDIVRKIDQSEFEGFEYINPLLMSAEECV

With `S=C(Nc1ccc2ncnc(Nc3cccc(Cl)c3)c2c1)NC1CCCC1` [Compound 19, 1-(4-((3-Chlorophenyl)amino)quinazolin-6-yl)-3-cyclopentylthiourea], the inhibition at 10 µM with NF-κB (10 μM, mean ± SEM, n = 3, read-out: NF-κB Luciferase Activity Inh %) was 92.5 ± 0.8%. In the series with NF-κB, the IC50 came to 2.3 µM. The viability at 10 µM in [1] was 118 ± 11.4%. In addition, the “Activation of IKKα/β (phospho-IKKα/β)” value with phospho-IKKα/β is reported as “had no effects on IKKα/β-IκB signaling; also recorded: neither blocked the activation of IKKα/β”. In addition, the inhibition at 2 µM on CHUK (IKK alpha) stood at 6%; against GSK3B (GSK3 beta), 4%; on IKBKB (IKK beta), 3%; on IKBKE (IKK epsilon), 3%; against IRAK1, 2%; against IRAK4, 5%. The inhibition at 2 µM amounted to 9% against MAP3K14 (NIK); 4% on MAPK14 (p38 alpha); 2% on MAPK3 (ERK1); 29% against RIPK2; 1% against RPS6KA1 (RSK1); 8% at TBK1. Further, the “% Inhibition at 2 µM, PRKCI (PKC iota)” value on PRKCI (PKC iota) is “n.i”. Besides, the “% Inhibition at 2 µM, PRKCQ (PKC theta)” value at PRKCQ (PKC theta) is “n.i”.

As usually defined, the IC50 is the concentration needed to halve the response being measured. Read a high IC50 as a need for much substance. One may read the viability as a read-out of living cells in per cent, often relative to untreated cells.
